The source of these data is PubChem BioAssay AID180 (DTP/NCI, 2004).

This assay concerns BDF1 mice, Adenocarcinoma 755 s.c., tumor weight T/C. Briefly: NCI In Vivo Anticancer Drug Screen. Data for tumor model Adenocarcinoma 755 (subcutaneous) in B6D2F1 (BDF1) mice. To be noted: endpoint: mean tumor weight, schedule: Q01DX011 (ip), higher = larger tumour. A digest of the protocol:
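Compound activity was tested in mice carrying transplanted tumors. Survival or tumor size was measured, and each value is the treated-group measurement divided by that of the vehicle-treated control group (T/C).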

[1] abbreviates: dose: 12.5 mg/kg/injection, vehicle: methylcellulose (MC).
[2] abbreviates: dose: 25.0 mg/kg/injection, vehicle: methylcellulose (MC).
Where [3] appears, read: dose: 45.0 mg/kg/injection, vehicle: carboxymethylcellulose (CMC).
[4] abbreviates: dose: 50.0 mg/kg/injection, vehicle: methylcellulose (MC).
Where [5] appears, read: dose: 200.0 mg/kg/injection, vehicle: carboxymethylcellulose (CMC).
Setting [6] is: dose: 100.0 mg/kg/injection, vehicle: carboxymethylcellulose (CMC).
Where [7] appears, read: dose: 400.0 mg/kg/injection, vehicle: carboxymethylcellulose (CMC).
Setting [8] is: dose: 800.0 mg/kg/injection, vehicle: carboxymethylcellulose (CMC).

Where “and” joins values, the source holds several entries; their conditions need not be identical. Equal values may be shown once.

In general, T/C refers to the ratio of treated to control. Consider `O=C1CN(/N=C\c2ccc([N+](=O)[O-])o2)C(=O)N1`, for which the T/C is, setting by setting: (dose: 4.74 mg/kg/injection, vehicle: carboxymethylcellulose (CMC)) 111 % of control; (dose: 8.03 mg/kg/injection, vehicle: carboxymethylcellulose (CMC)) 96 % of control; (dose: 9.48 mg/kg/injection, vehicle: carboxymethylcellulose (CMC)) 121 % of control; under setting [1], 83 % of control; (dose: 16.05 mg/kg/injection, vehicle: carboxymethylcellulose (CMC)) 115 % of control; (dose: 18.95 mg/kg/injection, vehicle: carboxymethylcellulose (CMC)) 94 % of control. Besides, the T/C under setting [2] is 61 % of control; the T/C (dose: 25.68 mg/kg/injection, vehicle: carboxymethylcellulose (CMC)) was 68 % of control; the T/C (dose: 35.0 mg/kg/injection, vehicle: carboxymethylcellulose (CMC)) was 84 % of control; the T/C (dose: 37.9 mg/kg/injection, vehicle: carboxymethylcellulose (CMC)) is 80 % of control; the T/C (dose: 42.8 mg/kg/injection, vehicle: carboxymethylcellulose (CMC)) was 41 % of control; the T/C under setting [3] was 64 % of control. Besides, the T/C was 75 % of control under setting [4]; 98 % of control (dose: 56.0 mg/kg/injection, vehicle: carboxymethylcellulose (CMC)); 72 % of control (dose: 64.0 mg/kg/injection, vehicle: carboxymethylcellulose (CMC)); 55 % of control (dose: 75.0 mg/kg/injection, vehicle: methylcellulose (MC)); 89 % of control (dose: 100.0 mg/kg/injection, vehicle: methylcellulose (MC)).

In the case of `Nc1nc(Oc2ccc(Cl)cc2)c2n[nH]nc2n1`, the T/C under setting [5] was 66 % of control.

Regarding `CCOC1CCCC(n2cnc3c(=S)nc[nH]c32)O1` (stereo not drawn), the T/C (dose: 4.69 mg/kg/injection, vehicle: methylcellulose (MC)) is 29 % of control and the T/C (dose: 9.38 mg/kg/injection, vehicle: methylcellulose (MC)) was 2 % of control.

For the compound `Nc1nc(SCc2ccccc2[N+](=O)[O-])c2ncn(C3OC(CO)C(O)C3O)c2n1` (stereo not drawn), the T/C under setting [1] is 21 % of control, the T/C under setting [2] was 7 % of control and the T/C under setting [4] is 2 % of control.

Turning to `Fc1ccc(CSc2ncnc3c2ncn3C2CCCO2)cc1` (stereo not drawn), the T/C reads like this: (dose: 4.6 mg/kg/injection, vehicle: methylcellulose (MC)) 53 % of control; (dose: 9.3 mg/kg/injection, vehicle: methylcellulose (MC)) 45 % of control; (dose: 18.7 mg/kg/injection, vehicle: methylcellulose (MC)) 10 % of control; (dose: 37.5 mg/kg/injection, vehicle: methylcellulose (MC)) 1 % of control and 3 % of control.

As for `CCOC(=O)/C(C)=N\Nc1cc(Cl)nc(N)n1`, the T/C (dose: 112.0 mg/kg/injection, vehicle: methylcellulose (MC)) was 200 % of control.

For the compound `Cc1cc(Nc2ccc(CCO)cc2)nc(N)n1`, the T/C (dose: 15.0 mg/kg/injection, vehicle: methylcellulose (MC)) was 64 % of control; the T/C (dose: 31.0 mg/kg/injection, vehicle: methylcellulose (MC)) was 75 % of control; the T/C (dose: 62.0 mg/kg/injection, vehicle: methylcellulose (MC)) is 77 % of control; the T/C (dose: 125.0 mg/kg/injection, vehicle: methylcellulose (MC)) was 85 % of control; the T/C (dose: 250.0 mg/kg/injection, vehicle: methylcellulose (MC)) is 73 % of control.

As to `Cn1c(N)nc2n[nH]nc2c1=O`, the T/C reads like this: (dose: 30.0 mg/kg/injection, vehicle: carboxymethylcellulose (CMC)) 105 % of control; (dose: 60.0 mg/kg/injection, vehicle: carboxymethylcellulose (CMC)) 119 % of control; under setting [6], 98 % of control; (dose: 120.0 mg/kg/injection, vehicle: carboxymethylcellulose (CMC)) 46 % of control; (dose: 240.0 mg/kg/injection, vehicle: carboxymethylcellulose (CMC)) 97 % of control.

For the compound `COc1ccc(C(=O)OCC2OC(n3cnc4c(=S)nc[nH]c43)C(OC(=O)c3ccc(OC)cc3)C2OC(=O)c2ccc(OC)cc2)cc1` (stereo not drawn), the T/C under setting [5] was 28 % of control, the T/C under setting [7] is 2 % of control and the T/C under setting [8] was 7 % of control.

For `Oc1ccc2ccccc2c1N=Nc1ccc(F)cc1`, the T/C is, setting by setting: (dose: 15.0 mg/kg/injection, vehicle: carboxymethylcellulose (CMC)) 70 % of control; (dose: 25.0 mg/kg/injection, vehicle: carboxymethylcellulose (CMC)) 104 % of control; (dose: 31.0 mg/kg/injection, vehicle: carboxymethylcellulose (CMC)) 37 % of control; under setting [3], 33 % of control; (dose: 50.0 mg/kg/injection, vehicle: carboxymethylcellulose (CMC)) 30 % of control; (dose: 50.0 mg/kg/injection, vehicle: saline) 38 % of control. For the same compound, the T/C by setting is: (dose: 62.0 mg/kg/injection, vehicle: carboxymethylcellulose (CMC)) 46 % of control; under setting [6], 27 % of control; (dose: 100.0 mg/kg/injection, vehicle: saline) 12 % of control; (dose: 200.0 mg/kg/injection, vehicle: saline) 22 % of control; (dose: 224.0 mg/kg/injection, vehicle: carboxymethylcellulose (CMC)) 9 % of control; under setting [7], 12 % of control and 15 % of control. The T/C was 15 % of control (dose: 400.0 mg/kg/injection, vehicle: saline); 17 % of control (dose: 450.0 mg/kg/injection, vehicle: carboxymethylcellulose (CMC)); 14 % of control (dose: 600.0 mg/kg/injection, vehicle: saline); 21 % of control under setting [8]; 8 % of control (dose: 1600.0 mg/kg/injection, vehicle: carboxymethylcellulose (CMC)).

Consider `O=C(Nc1ccc(C2=NCCN2)cc1)c1ccc(C(=O)Nc2ccc(C3=NCCN3)cc2)cc1`, for which the T/C runs as follows: (dose: 3.3 mg/kg/injection, vehicle: methylcellulose (MC)) 122 % of control; (dose: 6.5 mg/kg/injection, vehicle: methylcellulose (MC)) 113 % of control.

On to `CSc1nc(N)c(NC=O)c(=O)n1C`, for which the T/C by setting is: (dose: 25.0 mg/kg/injection, vehicle: saline) 118 % of control; (dose: 75.0 mg/kg/injection, vehicle: saline) 66 % of control.

On to `CCCCOP(=O)(N1CC1C)N1CC1C` (stereo not drawn), for which the T/C reads like this: (dose: 2.0 mg/kg/injection, vehicle: saline) 92 % of control and 96 % of control and 114 % of control; (dose: 32.0 mg/kg/injection, vehicle: saline) 25 % of control.

Consider `CS(=O)(=O)OCCCl`, for which the T/C is, setting by setting: (dose: 20.88 mg/kg/injection, vehicle: carboxymethylcellulose (CMC)) 80 % of control; (dose: 28.73 mg/kg/injection, vehicle: carboxymethylcellulose (CMC)) 80 % of control; (dose: 40.25 mg/kg/injection, vehicle: carboxymethylcellulose (CMC)) 52 % of control; (dose: 41.75 mg/kg/injection, vehicle: carboxymethylcellulose (CMC)) 117 % of control; (dose: 83.5 mg/kg/injection, vehicle: carboxymethylcellulose (CMC)) 97 % of control; (dose: 114.9 mg/kg/injection, vehicle: carboxymethylcellulose (CMC)) 88 % of control and 103 % of control. For the same compound, the T/C runs as follows: (dose: 130.0 mg/kg/injection, vehicle: carboxymethylcellulose (CMC)) 54 % of control; (dose: 140.0 mg/kg/injection, vehicle: carboxymethylcellulose (CMC)) 21 % of control; (dose: 150.0 mg/kg/injection, vehicle: carboxymethylcellulose (CMC)) 11 % of control.
